Tests used:
Somatostatin receptor [1] = test: Displacement of [125I-Tyr-11]-SRIF from SSTR of human NCI-H69 cell membranes
Somatostatin receptor [2] = test: Displacement of [125I]SRIF-14 from SSTR of rat AR42J cell membranes; set-up: species or system Membrane; details: ar-42j

| Structure (SMILES) | IC50 (Somatostatin receptor [1]) [nM] | IC50 (Somatostatin receptor [2]) [nM] |
| --- | --- | --- |
| C[C@@H](O)[C@H](NC(=O)CSCC[C@H]1C(=O)N[C@@H](Cc2ccc(O)cc2)C(=O)N[C@H](Cc2c[nH]c3ccccc23)C(=O)N[C@@H](CCCCN)C(=O)N[C@@H]([C@@H](C)O)C(=O)N[C@@H](Cc2ccccc2)C(=O)N1C)C(=O)NCC(=O)NCC(=O)N[C@@H](CS)C(N)=O | 1.6 | – |
| CC(C)[C@@H]1NC(=O)[C@H](CCCCN)NC(=O)[C@H](Cc2c[nH]c3ccccc23)NC(=O)[C@H](Cc2ccc(O)cc2)NC(=O)[C@@H](Cc2ccccc2)N(C)C(=O)[C@H](CCS)NC1=O | – | 1.5 |
| CC(C)[C@@H]1NC(=O)[C@H](CCCCN)NC(=O)[C@H](Cc2c[nH]c3ccccc23)NC(=O)[C@H](Cc2ccc(O)cc2)NC(=O)[C@@H](CCS)N(C)C(=O)[C@H](Cc2ccccc2)NC1=O | – | 0.7 |
| C[C@@H](O)[C@@H]1NC(=O)[C@H](CCCCN)NC(=O)[C@@H](Cc2c[nH]c3ccccc23)NC(=O)[C@H](Cc2ccc(O)cc2)NC(=O)[C@H](CCSCC(=O)NC[C@H](N)C(=O)N[C@@H](CCCCN)C(=O)N[C@@H](CS)C(=O)N[C@H](CO)[C@@H](C)O)N(C)C(=O)[C@H](Cc2ccccc2)NC1=O | 0.35 | – |
| C[C@@H](O)[C@H](NC(=O)[C@H](CS)NC(=O)[C@H](Cc1ccc(N)cc1)NC(=O)[C@@H](N)CNC(=O)CSCC[C@H]1C(=O)N[C@@H](Cc2ccc(O)cc2)C(=O)N[C@H](Cc2c[nH]c3ccccc23)C(=O)N[C@@H](CCCCN)C(=O)N[C@@H]([C@@H](C)O)C(=O)N[C@@H](Cc2ccccc2)C(=O)N1C)C(=O)N[C@@H](CO)C(=O)O | 0.2 | – |
| C[C@@H](O)[C@@H]1NC(=O)[C@H](CCCCN)NC(=O)[C@H](Cc2c[nH]c3ccccc23)NC(=O)[C@H](Cc2ccc(O)cc2)NC(=O)[C@@H](Cc2ccccc2)N(C)C(=O)[C@H](CCS)NC1=O | – | 0.4 |
| C[C@@H](O)[C@@H]1NC(=O)[C@H](CCCCN)NC(=O)[C@@H](Cc2c[nH]c3ccccc23)NC(=O)[C@H](Cc2ccc(O)cc2)NC(=O)[C@H](CCSCC(=O)NC[C@H](N)C(=O)N[C@@H](CO)C(=O)N[C@@H](CS)C(=O)N[C@H](CO)[C@@H](C)O)N(C)C(=O)[C@H](Cc2ccccc2)NC1=O | 1.6 | – |
| C[C@@H](O)[C@@H]1NC(=O)[C@H](CCCCN)NC(=O)[C@H](Cc2c[nH]c3ccccc23)NC(=O)[C@H](Cc2ccc(O)cc2)NC(=O)[C@@H](CCS)NC(=O)[C@H](Cc2ccccc2)N(C)C1=O | – | 23.7 |
| C[C@@H](O)[C@@H]1NC(=O)[C@H](CCCCN)NC(=O)[C@@H](Cc2c[nH]c3ccccc23)NC(=O)[C@H](Cc2ccc(O)cc2)NC(=O)[C@H](CCSCC(=O)NC[C@H](N)C(=O)N[C@@H](Cc2ccc(N)cc2)C(=O)N[C@@H](CS)C(=O)N[C@H](CO)[C@@H](C)O)N(C)C(=O)[C@H](Cc2ccccc2)NC1=O | 0.5 | – |
| C[C@@H](O)[C@H](NC(=O)[C@H](CS)NC(=O)[C@H](Cc1ccc(N)cc1)NC(=O)[C@@H](N)CNC(=O)CSCC[C@H]1C(=O)N[C@@H](Cc2ccc(O)cc2)C(=O)N[C@H](Cc2c[nH]c3ccccc23)C(=O)N[C@@H](CCCCN)C(=O)N[C@@H]([C@@H](C)O)C(=O)N[C@@H](Cc2ccccc2)C(=O)N1C)C(=O)O | 0.64 | – |
| C[C@@H](O)[C@@H]1NC(=O)[C@H](CCCCN)NC(=O)[C@H](Cc2c[nH]c3ccccc23)NC(=O)[C@H](Cc2ccc(O)cc2)NC(=O)[C@@H](CCS)N(C)C(=O)[C@H](Cc2ccccc2)NC1=O | – | 0.1 |

From ChEMBL document CHEMBL1142948, “Somatostatin receptor-binding peptides suitable for tumor radiotherapy with Re-188 or Re-186. Chemistry and initial biological studies” (J Med Chem, 2007)
